The results in this text go back to US20250276977A1, “TYK2 INHIBITORS AND USES THEREOF” (Alumis Inc., priority 2019, published 2025).

The conditions of data set [1]: cn_pd bond, 1,4-dioxane.
Data set [2] has as its system JAK2/TYK2 (IL-12 induced pSTAT4). The experiment in a line: IL-12 induced pSTAT4 in human PBMC. The class given is cell-based. The settings on record: IL-12 10 ng/ml. The protocol:
(§1) Fresh Human PBMCs were resuspended in RPMI 1640 medium with 10% FBS. Cells were seeded in a round bottom 96-well plate at the concentration of 200,000 cells/well. A 10-point dilution series of test compound (top dose 10 uM, 1:5 dilution) was added to the well using the liquid dispenser (Tecan D300e) and incubated for 1 hour at 37 C. Then human IL-12 recombinant protein (R&D Systems) was added to the well at the final concentration of 10 ng/ml and incubated for 15 minutes at 37 C. Cell lysates were prepared and analyzed by Phospho STAT4 (Tyr693) Kit (Meso Scale Discovery) following manufacturer's protocol.
For calculation of the inhibition rate, the relative pSTAT4 signal of each well=pSTAT4 signal of each well−the average pSTAT4 signal of baseline.
The inhibition %=(the average pSTAT4 signal of IL-12 treatment wells—the relative of pSTAT4 signal in each compound containing well)/the average pSTAT4 signal of IL-12 treatment wells*100%
(§2) The curve was plotted as the inhibition % (y-axis) vs. compounds concentration (x-axis) and was fitted with log(inhibitor) vs. normalized response—Variable slope by GraphPad Prism7.0.

For data set [3], the target named is T1, human TYK2 (JH2domain-pseudokinase) (Homo sapiens, UniProt P29597).
T1 construct: host or cells: transiently transfected HEK293 cells; unpurified extract
T1 sequence (P29597 556-888): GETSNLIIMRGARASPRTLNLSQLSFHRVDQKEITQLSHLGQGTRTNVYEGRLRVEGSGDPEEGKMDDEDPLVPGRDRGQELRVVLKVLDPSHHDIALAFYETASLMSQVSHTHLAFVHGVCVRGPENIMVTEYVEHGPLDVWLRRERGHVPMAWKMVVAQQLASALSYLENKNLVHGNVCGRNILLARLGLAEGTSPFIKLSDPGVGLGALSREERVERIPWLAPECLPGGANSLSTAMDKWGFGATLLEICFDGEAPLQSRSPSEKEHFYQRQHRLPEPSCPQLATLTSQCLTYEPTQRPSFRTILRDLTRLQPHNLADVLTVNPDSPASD
The data set is described as follows: TYK2 JH2 domain binding assay (KINOMEscan). Particulars: duplicate. The protocol:
Binding constants for the compounds described herein against the JH2 domain were determined by the following protocol for a KINOMEscan® assay (DiscoveRx). A fusion protein of a partial length construct of human TYK2 (JH2domain-pseudokinase) (amino acids G556 to D888 based on reference sequence NP_003322.3) and the DNA binding domain of NFkB is expressed in transiently transfected HEK293 cells. From these HEK 293 cells, extracts are prepared in M-PER extraction buffer (Pierce) in the presence of Protease Inhibitor Cocktail Complete (Roche) and Phosphatase Inhibitor Cocktail Set II (Merck) per manufacturers' instructions. The TYK2 (JH2domain-pseudokinase) fusion protein is labeled with a chimeric double-stranded DNA tag containing the NFkB binding site fused to an amplicon for qPCR readout, which is added directly to the expression extract (the final concentration of DNA-tag in the binding reaction is 0.1 nM).
The liganded beads are blocked with excess biotin and washed with blocking buffer (SeaBlock (Pierce), 1% BSA, 0.05% Tween 20, 1 mM DTT) to remove unbound ligand and to reduce nonspecific binding.
Extracts are used directly in binding assays without any enzyme purification steps at a ≥10,000-fold overall stock dilution (final DNA-tagged enzyme concentration <0.1 nM). Extracts are loaded with DNA-tag and diluted into the binding reaction in a two-step process. First extracts are diluted 1:100 in 1× binding buffer (PBS/0.05% Tween 20/10 mM DTT/0.1% BSA/[…] sonicated salmon sperm DNA) containing 10 nM DNA-tag. This dilution is allowed to equilibrate at room temperature for 15 minutes and then subsequently diluted 1:100 in 1× binding buffer. Test compounds were prepared as 111×stocks in 100% DMSO. […] The compounds are then diluted directly into the assays such that the final concentration of DMSO was 0.9%. All reactions are performed in polypropylene 384-well plates. Each was a final volume of 0.02 mL.
Assays are incubated with shaking for 1 hour at room temperature. Then the beads are pelleted and washed with wash buffer (1×PBS, 0.05% Tween 20) to remove displaced kinase and test compound. […] The kinase concentration in the eluates was measured by qPCR. qPCR reactions are assembled by adding […] of kinase eluate to […] of qPCR master mix containing […] amplicon primers and […] amplicon probe. The qPCR protocol consisted of a 10 minute hot start at 95° C., followed by 35 cycles of 95° C. for 15 seconds, 60° C. for 1 minute.
Test compounds are prepared as 111×stocks in 100% DMSO. […] The compounds are then diluted directly into the assays such that the final concentration of DMSO was 0.9%. The Kds are determined using a compound top concentration of 30,000 nM. Kd measurements are performed in duplicate.
Binding constants (Kds) were calculated with a standard dose-response curve using the Hill equation: […]
The Hill Slope was set to −1. Curves were fitted using a non-linear least square fit with the Levenberg-Marquardt algorithm (Levenberg, K., A method for the solution of certain non-linear problems in least squares, Q. Appl. Math. 2, 164-168 (1944)).

In data set [4] the test system is INFα induced pSTAT5. The experiment in a line: INFα induced pSTAT5 in human PBMC. Particulars: Homo sapiens, PBMC, INFα 5000 units/ml, read-out: p-STAT5 IC50. The class given is cell-based. The protocol:
as §1, with “INFα” for “IL-12”, “5000 units/ml” for “10 ng/ml”, “STAT3 (Tyr705) cellular kit (Cisbio) or Phospho STAT5” for “STAT4”
For calculation of the inhibition rate, the relative pSTAT signal of each well=pSTAT signal of each well−the average pSTAT signal of baseline.
The inhibition %=(the average pSTAT signal of INFα treatment wells—the relative of pSTAT signal in each compound containing well)/the average pSTAT signal of INFα treatment wells * 100%
as §2

Data set [5] is described as follows: Pharmacokinetic studies in Sprague Dawley rats. Particulars: rat, plasma, male Sprague Dawley rats. The class given is in vivo. The protocol:
The pharmacokinetics of test compounds were evaluated in male Sprague Dawley rats when administered via oral gavage and IV injection. The test compound was suspended in 0.5% methylcellulose for oral gavage and dissolved in 5% DMSO/5% Solutol/90% saline for IV injection. The animals were fasted overnight before administration. Plasma samples were collected predose and at 0.5, 1, 3, 6, 9, 12, and 24 hours postdose. The samples were analyzed by LC/MS/MS and the concentration of test compound at each timepoint was determined by linear regression. Pharmacokinetic parameters were calculated from the plasma concentrations using Pheonix WinNonlin.

The subject of data set [6] is IL-2-induced pSTAT5. The experiment in a line: IL-2-induced pSTAT5 in human PBMC. In kind it is cell-based. The settings on record: 20 ng/ml of IL-2. The protocol:
Similar to the method for INFα induced pSTAT5 in human PBMC described above, these assays were performed to check if test compounds have cross-activity to JAK1. JAK2 and JAK3 pathways in human PBMC. The procedure is as described with change of stimuli to 10 ng/ml of GM-CSF or 20 ng/ml of IL-2.

Like-named read-outs stand apart in the source and are kept apart here.

On to `CNC(=O)Oc1cc(Cl)nn2c(C(=O)NC3CC(OCc4ccc(OC)c([N+](=O)[O-])c4)C3)cnc12` (stereo not drawn), for which the ring closure, isolated yield in data set [1] (the molecule shown is the open-chain precursor, 15-membered ring, tBuXPhos-Pd-G3/Cs2CO3, 50.0 mM, 80.0 °C) came to 20.2%. On to `COc1ccc2cc1Nc1cc(N(C)C(=O)OC(C)(C)C)c3ncc(n3n1)C(=O)NC1(CC1)COC2`, for which the ring closure, isolated yield in data set [1] (from COc1ccc(COCC2(NC(=O)c3cnc4c(N(C)C(=O)OC(C)(C)C)cc(Cl)nn34)CC2)cc1N, 14-membered ring, tBuXPhos-Pd-G3/Cs2CO3, 15.0 mM, 85.0 °C, 2.0 h) was 58.7%.

`COc1ccc2cc1Nc1cc(N(C)C(=O)OC(C)(C)C)c3ncc(n3n1)C(=O)N[C@H](C)CN(C)C2` came in with a ring closure, isolated yield in data set [1] (from COc1ccc(CN(C)C[C@@H](C)NC(=O)c2cnc3c(N(C)C(=O)OC(C)(C)C)cc(Cl)nn23)cc1N, 14-membered ring, Pd2(dba)3/XPhos/Cs2CO3, 56.0 mM, 95.0 °C, 3.5 h) of 10.8%.

`COc1ccc2nc1Nc1cc(N(C)C(=O)OC(C)(C)C)n3ncc(c3n1)C(=O)N[C@H](C)COC2` showed a ring closure, isolated yield in data set [1] (from COc1ccc(COC[C@@H](C)NC(=O)c2cnn3c(N(C)C(=O)OC(C)(C)C)cc(Cl)nc23)nc1N, 14-membered ring, Pd2(dba)3/XPhos/Cs2CO3, 6.3 mM, 95.0 °C, 3.5 h) of 84.2%.

In data set [1] (from COc1nnc(COC[C@@H](C)NC(=O)c2cnn3c(N(C)C(=O)OC(C)(C)C)cc(Cl)nc23)cc1N, 14-membered ring, tBuXPhos-Pd-G3/Cs2CO3, […], 80.0 °C, 2.0 h), `COc1nnc2cc1Nc1cc(N(C)C(=O)OC(C)(C)C)n3ncc(c3n1)C(=O)N[C@H](C)COC2` registered a ring closure, isolated yield of 21.7%.

On to `C[C@@H]1COCc2cc(c(=O)n(C)n2)Nc2cc(N(C)C(=O)OC(C)(C)C)c3ncc(n3n2)C(=O)N1`, for which, in data set [1] (from C[C@H](COCc1cc(N)c(=O)n(C)n1)NC(=O)c1cnc2c(N(C)C(=O)OC(C)(C)C)cc(Cl)nn12, 14-membered ring, tBuXPhos-Pd-G3/Cs2CO3, […], 80.0 °C, 2.0 h), the ring closure, isolated yield was determined as 78.2%. Regarding `C[C@@H]1COCc2cc(c(=O)n(C)n2)Nc2cc(N(C)C(=O)OC(C)(C)C)n3ncc(c3n2)C(=O)N1`, in data set [1] (from C[C@H](COCc1cc(N)c(=O)n(C)n1)NC(=O)c1cnn2c(N(C)C(=O)OC(C)(C)C)cc(Cl)nc12, 14-membered ring, tBuXPhos-Pd-G3/Cs2CO3, 19.0 mM, 85.0 °C, 2.0 h), the ring closure, isolated yield stood at 70%. `C[C@@H]1COCc2cc(c3cn(C)nc3c2)Nc2cc(N(C)C(=O)OC(C)(C)C)n3ncc(c3n2)C(=O)N1` registered a ring closure, isolated yield in data set [1] (from C[C@H](COCc1cc(N)c2cn(C)nc2c1)NC(=O)c1cnn2c(N(C)C(=O)OC(C)(C)C)cc(Cl)nc12, 14-membered ring, Pd2(dba)3/XPhos/Cs2CO3, 18.0 mM, 95.0 °C, 3.5 h) of 82.2%. For `C[C@@H]1COCc2cc(c3nccn3c2)Nc2cc(N(C)C(=O)OC(C)(C)C)n3ncc(c3n2)C(=O)N1`, the ring closure, isolated yield in data set [1] (from C[C@H](COCc1cc(N)c2nccn2c1)NC(=O)c1cnn2c(N(C)C(=O)OC(C)(C)C)cc(Cl)nc12, 14-membered ring, tBuXPhos-Pd-G3/Cs2CO3, 11.5 mM, 80.0 °C, 2.0 h) amounted to 72%. On to `C[C@@H]1COCc2ccc(F)c(c2)Nc2cc(N(C)C(=O)OC(C)(C)C)n3ncc(c3n2)C(=O)N1`, for which the ring closure, isolated yield in data set [1] (from C[C@H](COCc1ccc(F)c(N)c1)NC(=O)c1cnn2c(N(C)C(=O)OC(C)(C)C)cc(Cl)nc12, 14-membered ring, tBuXPhos-Pd-G3/Cs2CO3, 20.0 mM, 85.0 °C, 2.0 h) came out at 30%. With `Cc1cc2nc(n1)COC[C@@H](C)NC(=O)c1cnc3c(N(C)C(=O)OC(C)(C)C)cc(nn13)N2`, the ring closure, isolated yield in data set [1] (from Cc1cc(N)nc(COC[C@@H](C)NC(=O)c2cnc3c(N(C)C(=O)OC(C)(C)C)cc(Cl)nn23)n1, 14-membered ring, Pd2(dba)3/XPhos/Cs2CO3, 40.0 mM, 80.0 °C, 1.0 h) turned out to be 53%. As a reminder, the IC50 is the midpoint of a concentration-inhibition curve. By Kd is commonly meant the equilibrium constant for the complex coming apart. Regarding `CNc1cc2nc3c(cnn13)C(=O)NCCOCc1ccc(OC)c(c1)N2` [Example 2], the concentration for half-maximal inhibition (IC50) in data set [2] stood at 12.2 nM. In data set [3], the Kd turned out to be 0.14 nM.

Consider `CNc1cc2nn3c(cnc13)C(=O)NCCCOc1ccc(OC)c(c1)N2` [Example 4], for which, in data set [2], the concentration for half-maximal inhibition (IC50) is 16.1 nM. The compound also displayed a dissociation constant (Kd) in data set [3] of 0.38 nM. Regarding `CNc1cc2nn3c(cnc13)C(=O)NCCOCc1ccc(OC)c(c1)N2` [Example 6], in data set [3], the dissociation constant (Kd) was determined as 0.071 nM. Also, in data set [4], the IC50 was found to be 26.2 nM. Usually AUC stands for concentration integrated over time. The clearance is the rate of elimination divided by the concentration. What is called half-life is the time in which the quantity being followed falls by half. Lower therefore signals rapid decline. The term Cmax denotes the maximum level reached in the sampled fluid or tissue. By Tmax is commonly meant the time from dosing to the highest level. As usually defined, the bioavailability is the share of a dose that reaches the circulation, judged against a reference dose that is usually intravenous. For the compound `CNc1cc2nn3c(cnc13)C(=O)NC(C)COCc1ccc(OC)c(c1)N2` (stereo not drawn) [Example 7], in data set [3], the affinity, expressed as Kd, was 0.0071 nM. Also, the IC50 in data set [4] came to 2.3 nM. Besides, in data set [5] (iv, I.V. (1 mg/kg)), the AUC was 318 ± 30 ng·h/mL, the C0 was found to be 1230 ± 153 ng/mL, the clearance is 52.4 ± 5.3 mL/min/kg and the half-life was 18 ± 0.96 min. Also, in data set [5] (iv, I.V. (1 mg/kg), read-out: Vdss), the Vd turned out to be 0.956 ± 0.1 L/kg. Moreover, in data set [5] (Oral (5 mg/kg)), the AUC was 84.9 ± 36 ng·h/mL, the concentration peaked (Cmax) at 18.2 ± 3.1 ng/mL, the time of peak concentration (Tmax) amounted to 40 ± 17.4 min and the bioavailability was 5.34 ± 2.3%. For the same compound, in data set [5] (Oral (5 mg/kg)), the half-life is 238 ± 66 min. Take `CNc1cc2nn3c(cnc13)C(=O)N[C@H](C)COCc1cc(c(OC)c(F)c1F)N2` [Example 19, (7R,E)-3^4,3^5-difluoro-3^6-methoxy-7-methyl-1^8-(methylamino)-5-oxa-2,8-diaza-1(6,3)-imidazo[1,2-b]pyridazina-3(1,3)-benzenacyclononaphan-9-one]: the results for the IC50 in data set [4] and in data set [6] were 8.7 nM and 38500 nM, respectively.

As to `CNc1cc2nn3c(cnc13)C(=O)N[C@H](C)COCc1cc(c3nn(C)cc3c1)N2` [Example 24], the results for the half-inhibitory concentration (IC50) in data set [4] and in data set [6] were 0.5 nM and 9390 nM, respectively.
